Data reported in patent publication US20190070128A1, “USE OF CANNABIDIVARIN IN THE TREATMENT OF AUTISM SPECTRUM DISORDER, ASSOCIATED DISORDERS AND SCHIZOPHRENIA” (GW Research Limited, priority 2016, published 2019).

Columns and labels:
VPA-exposed rats = test: sociability and preference for social novelty, 3-chamber apparatus, prenatal VPA model; type: in vivo, rat
Method: Pregnant Sprague-Dawley rats (Charles River, Calco, Italy), received a single intraperitoneal injection of 500 mg/kg sodium valproate on the 12.5 day after conception, and control females were injected with physiological saline at the same time. Sodium valproate (Sigma Aldrich, Milan, IT) was dissolved in saline at a concentration of 250 mg/ml.
CBDV was dissolved in ethanol, cremophor and saline (1:1:18). Symptomatic treatment with CBDV at doses of 0.2, 2, 20, and 100 mg/kg/day i.p. was performed starting from PND 34 (early adolescence) till 56 (early adulthood), both in male and female offspring of dams injected with VPA 500 mg/kg (or vehicle) on day 12.5 after conception. At PND 56, a series of behavioural tests was performed in order to assess the effect of chronic CBDV on sociability, social novelty, short-term memory, locomotion and stereotyped/repetitive behaviours.
Sociability and preference for social novelty: These behaviours were investigated in a 3-chamber apparatus which allows for the measurement of social approach and social preference. In brief, animals were placed into a novel arena (80 cm×31.5 cm) composed of three communicating chambers separated by Perspex walls with central openings allowing access to all chambers for 5 min.
Following this acclimatisation period, animals were briefly confined to the central chamber while an unfamiliar rat confined in a small wire cage was placed in one of the outer chambers. An identical empty wire cage was placed in the other chamber. The unfamiliar rat was randomly assigned to either the right or left chamber of the arena. The test animal was then allowed to explore the arena/chambers for a further 5 min. Time spent engaging in investigatory behaviour with the rat was evaluated with the aid of Anymaze program (Ugo Basile, Italy) in order to examine social approach.
To investigate the preference for social novelty, a novel unfamiliar rat was then placed in the empty cage and the test animal was then allowed to explore the arena/chambers for a further 5 min. Time spent engaging in investigatory behaviour with the novel unfamiliar rat was evaluated with the aid of Anymaze program (Ugo Basile, Italy) in order to examine preference for social novelty.

[1] = system: neuroinflammatory markers (GFAP, CD11b, TNF-α); test: neuroinflammation studies, hippocampus, Western blotting, prenatal VPA model; type: in vivo, rat
Method: At the end of the study, on PND 59, male rats treated with CBDV 20 mg/kg i.p. were sacrificed and the hippocampus was collected 24 hours after the last CBDV injection and stored at −80° C. for evaluation of changes in protein expression of components of the endocannabinoid system (CB1 and CB2 receptors, the endocannabinoid degrading enzymes, FAAH and MAGL and the synthetic enzymes, DAGLα and NAPE-PLD); neuroinflammatory markers (GFAP (astrocytic marker), Iba1 (microglial marker), CD11 b (activated microglial marker), TNF-α (proinflammatory cytokine) and iNOS (inflammatory mediator)); synaptic markers (Synaptophysin (synaptic vesicle protein), PSD-95 (post synaptic density protein) and the neurotrophins, BDNF and IGF by Western blotting.

Ube3am-/p+ (AS) mice = test: clasping test in Angelman syndrome mice; type: in vivo, mouse; conditions: chronic treatment (30 days), 20 mg/kg i.p., 10 weeks of age, vs AS vehicle
Method: Heterozygous mice with maternal deficiency of Ube3A (Ube3am−/p+) and wild type (Ube3am+/p+) were purchased from The Jackson Laboratory (Jackson code: B6.12957-Ube3a tm1Alb/J) and maintained in a C57BL/6 background.
Drugs were dissolved in 1:1:18 ethanol:cremophor:0.9% saline, for intraperitoneal (i.p.) administration. Drug treatment was performed daily for 35 days. CBDV was administered at 20 mg/kg.
Clasping: The clasping test assesses ataxia in mice. Mice were suspended by the base of the tail and their behaviours were recorded for 30 seconds. The time for which the mice clasped their hind limbs was recorded. The time was then scored as follows: 4, 15-30 s, 3, 10-15 s, 2, 5-10 s, 1, 0-5 s and 0.0 s

PCP-treated rats = test: novel object recognition test in sub-chronic PCP treated rats; type: in vivo, rat
Method: Female hooded-Lister rats were used for this experiment. Rats were housed in groups of 5 under standard laboratory conditions under a 12 hr light: dark cycle, lights on at 0700 hr. Testing was carried out in the light phase.
Rats were randomly assigned to two treatment groups and treated with vehicle, n=20 (distilled water, i.p.) or Phencyclidine hydrochloride (PCP), n=100 (2 mg/kg, i.p. twice daily for 7-days). PCP was dissolved in distilled water. This was followed by a 7-day wash out period before the rats were tested following acute treatment with CBDV, risperidone or vehicle.
Risperidone (0.1 mg/kg) was dissolved in a minimum volume of acetic acid, made up to volume with distilled water and pH adjusted to 6 with 0.1M NaOH and administered via the i.p. route in a volume of 1 ml/kg, 60 min prior to testing.
CBDV at 2, 10 or 20 mg/kg was dissolved in 2:1:17 (Ethanol:Cremofor:Saline 0.9%) and administered via the i.p. route in a volume of 5 ml/kg, 60 min prior to testing.
Rats were allowed to habituate to the empty test box and the behavioural test room environment for 1 h on day 1. Prior to behavioural testing on day 2 rats are given a further 3 min habituation.
Following the 3 min habituation period, the rats are given two 3 min trials (T1 and T2) which are separated by a 1 min inter-trial interval in the home cage during which the objects are changed. Behaviour in all trials was recorded on video for subsequent blind scoring.
In this trial, the animals are allowed to explore two identical objects (A1 and A2) for 3 min.
In this trial, the animals explore a familiar object (A) from T1 and a novel object (B) for 3 min. The familiar object presented during T2 is a duplicate of the object presented in T1 in order to avoid any olfactory trails.
The object exploration is defined by animals licking, sniffing or touching the object with the forepaws whilst sniffing, but not leaning against, turning around, standing or sitting on the object. The exploration time (s) of each object (A, B, familiar and novel) in each trial are recorded using two stopwatches and the following factors are calculated: • Total exploration time of both objects in the acquisition trial (s). • Total exploration time of both objects in the retention trial (s). • Habituation of exploratory activity includes the exploration time, as measured by the number of lines crossed, for both the trials. • Discrimination index (DI), which is calculated as shown below: […]

C=C(C)[C@@H]1CCC(C)=C[C@H]1c1c(O)cc(CCC)cc1O [CBDV, Cannabidivarin]
deficit in social preference (VPA-exposed rats; 20 mg/kg and 100 mg/kg): reversed | restoration of social novelty preference (VPA-exposed rats; 20 mg/kg/day i.p. PND 34-56, p<0.001 in males, p<0.01 in females): statistically significant effect | reduction of preference index in VPA-CBDV animals compared to controls (VPA-exposed rats; VPA alone about 48%): about 13% | impairment in sociability (VPA-exposed rats; all doses (0.2, 2, 20, 100 mg/kg/day i.p.)): significantly reduced | expression of increased inflammatory markers (GFAP, CD11b, TNFα) in hippocampus ([1]; VPA-exposed male rats, chronic CBDV 20 mg/kg i.p.): completely normalised | expression of inflammatory markers in hippocampus ([1]; control rats, chronic CBDV): no effect | clasping duration (Ube3am-/p+ (AS) mice): significantly reduced | discrimination index (DI) (PCP-treated rats; PCP rats, 10 and 20 mg/kg): statistically significant increase | preference between two identical objects, Trial 1 (acquisition) (PCP-treated rats; PCP rats, CBDV 2, 10 or 20 mg/kg i.p., risperidone 0.1 mg/kg i.p., 60 min prior to testing): no real preference | cognitive dysfunction (discrimination between familiar and novel objects, Trial 2) (PCP-treated rats; PCP treated rats, CBDV 10 and 20 mg/kg i.p.): reverse
